From patent publication US6358921B1, “Antimicrobial peptide compositions and method” (priority 1996, dated 2002)

What was measured:
P. aeruginosa H187 = assay type: cell-based, Pseudomonas aeruginosa; details: H187
In short: (§1)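 Peptides are tested by liquid microdilution against strains such as Salmonella C610, E. faecalis ATCC 29212 and sensitive P. aeruginosa H188, with 5×10^5 CFU/mL in LB, overnight at 37 °C. Where a therapeutic index is given, it divides the 4 h complete-hemolysis concentration by the MIC.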

P. aeruginosa H188 = assay type: cell-based, Pseudomonas aeruginosa; details: H188
In short: (§2)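 Antimicrobial activity is measured by a liquid-broth assay in LB at 37 °C overnight, starting from 5×10^5 CFU/mL. Values are minimal inhibitory concentrations, i.e. the lowest concentration that stops growth.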

E. coli UB1005 = assay type: cell-based, Escherichia coli; details: UB1005
In short: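 Growth inhibition was scored after overnight culture at 37 °C in LB with peptide serial dilutions (inoculum 5×10^5 CFU/mL); MICs were the lowest inhibitory concentrations. Test strains were E. coli UB1005 (wild type), C. xerosis (environmental), and C. albicans and S. epidermidis (clinical isolates).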

E. coli DC2 = assay type: cell-based, Escherichia coli; details: DC2
In short: as §1

S. typhinurium C587 = assay type: cell-based, Salmonella typhinurium
In short: as §2

S. typhinurium C610 = assay type: cell-based, Salmonella typhinurium
In short: as §2

S. aureus K147 = assay type: cell-based, Staphylococcus aureus
In short: (§3)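 Minimum inhibitory concentrations come from a broth rather than agar assay, using LB medium, a final inoculum of 5×10^5 CFU/mL and overnight incubation at 37 °C. Values are in μg/ml.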

S. aureus SAP0017 = assay type: cell-based, Staphylococcus aureus
In short: as §3

S. epidermidis = assay type: cell-based, Staphylococcus epidermidis
In short: as §2

B. subtilis = assay type: cell-based, Bacillus subtilis
In short: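 Liquid-broth microdilution: overnight LB cultures diluted and added to serial peptide dilutions at final 5×10^5 CFU/mL, incubated overnight at 37 °C. MIC is the lowest concentration inhibiting growth; C. albicans a clinical isolate, S. epidermidis clinical, C. xerosis environmental.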

E. faecalis = assay type: cell-based, Enterococcus faecalis
In short: as §2

C. xeroses = assay type: cell-based, Corynebacterium xerosis
In short: as §2

C. Albicans = assay type: cell-based, Candida albicans
In short: as §2

human erythrocytes = assay: Hemolytic activity; assay type: cell-based
Method: Serial dilutions of the peptides in saline were prepared in round bottom microtitre plates using 100 μL volumes. Red blood cells were diluted with saline to 1/25 packed volume of cells and 50 μL added to each well. Plates were incubated with rocking at 37° C., and the concentration required for complete lysis determined visually after 4 h.

[1] = Displacement of dansyl-polymyxin from LPS; assay type: binding, P. aeruginosa; details: read-out: LPS binding affinity: peptide concentration to displace 50% of dansyl-polymyxin B from LPS; Tables 1, 4, 7
In short: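 Peptides titrated into 3 μg/mL P. aeruginosa LPS with 2.5 μM dansyl-polymyxin (~90% site saturation) in 5 mM sodium HEPES, pH 7.0; fluorescence decrease recorded. I50 (50% probe displacement) taken from the x-intercept of a double-reciprocal plot of percent inhibition versus inhibitor concentration.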

| Compound | Minimum Inhibitory Concentration (activity) (P. aeruginosa H187) [µg/mL] | Minimum Inhibitory Concentration (activity) (P. aeruginosa H188) [µg/mL] | Minimum Inhibitory Concentration (activity) (E. coli UB1005) [µg/mL] | Minimum Inhibitory Concentration (activity) (E. coli DC2) [µg/mL] | Minimum Inhibitory Concentration (activity) (S. typhinurium C587) [µg/mL] | Minimum Inhibitory Concentration (activity) (S. typhinurium C610) [µg/mL] | Minimum Inhibitory Concentration (activity) (S. aureus K147) [µg/mL] | Minimum Inhibitory Concentration (activity) (S. aureus SAP0017) [µg/mL] | Minimum Inhibitory Concentration (activity) (S. epidermidis) [µg/mL] | Minimum Inhibitory Concentration (activity) (B. subtilis) [µg/mL] | Minimum Inhibitory Concentration (activity) (E. faecalis) [µg/mL] | Minimum Inhibitory Concentration (activity) (C. xeroses) [µg/mL] | Minimum Inhibitory Concentration (activity) (C. Albicans) [µg/mL] | Hemolytic activity: peptide concentration for 100% lysis of human erythrocytes (human erythrocytes) [µg/mL] | IC50 [1] [µM] |
| --- | --- | --- | --- | --- | --- | --- | --- | --- | --- | --- | --- | --- | --- | --- | --- |
| CC(C)C[C@@H]1NC(=O)[C@H](CCCCN)NC(=O)[C@H](C(C)C)NC(=O)[C@@H]2CCCN2C(=O)[C@@H](Cc2ccccc2)NC(=O)[C@H](CC(C)C)NC(=O)[C@H](CCCCN)NC(=O)[C@H](C(C)C)NC(=O)[C@H](CCCCN)NC(=O)[C@H](CC(C)C)NC(=O)[C@@H]2CCCN2C(=O)[C@@H](Cc2ccccc2)NC(=O)[C@H](C(C)C)NC(=O)[C@@H](CCCCN)NC1=O [Y2/F2] | 17 | 3.1 | 6.2 | 1.5 | 9 | 3.1 | 12.5 | 9 | 3.1 | 12.5 | 6.2 | 1.5 | 3.1 | 40 | 59 |
| CC(C)C[C@@H]1NC(=O)[C@H](CCCCN)NC(=O)[C@H](CC(C)C)NC(=O)[C@@H]2CCCN2C(=O)[C@@H](Cc2ccc(O)cc2)NC(=O)[C@H](CC(C)C)NC(=O)[C@@H](CCCCN)NC(=O)[C@H](CC(C)C)NC(=O)[C@H](CCCCN)NC(=O)[C@H](CC(C)C)NC(=O)[C@@H]2CCCN2C(=O)[C@@H](Cc2ccc(O)cc2)NC(=O)[C@H](CC(C)C)NC(=O)[C@H](CCCCN)NC1=O [V3/L3] | 100 | 3.1 | 6.2 | 3.1 | 100 | 15 | 25 | 12.5 | 1.5 | 9 | 1.5 | 1 | 4 | 25 | 46 |
| C[C@@H]1NC(=O)[C@H](CCCCN)NC(=O)[C@H](C)NC(=O)[C@@H]2CCCN2C(=O)[C@@H](Cc2ccc(O)cc2)NC(=O)[C@H](C)NC(=O)[C@@H](CCCCN)NC(=O)[C@H](C)NC(=O)[C@H](CCCCN)NC(=O)[C@H](C)NC(=O)[C@@H]2CCCN2C(=O)[C@@H](Cc2ccc(O)cc2)NC(=O)[C@H](C)NC(=O)[C@H](CCCCN)NC1=O [V3L3/A6] | >200 | 75 | >200 | >200 | >200 | >200 | >200 | >200 | >200 | >200 | >200 | 200 | 400 | >800 | 291 |
| CC(C)C[C@@H]1NC(=O)[C@H](CCCCN)NC(=O)[C@H](C)NC(=O)[C@@H]2CCCN2C(=O)[C@@H](Cc2ccc(O)cc2)NC(=O)[C@H](CC(C)C)NC(=O)[C@H](CCCCN)NC(=O)[C@H](C)NC(=O)[C@H](CCCCN)NC(=O)[C@H](CC(C)C)NC(=O)[C@@H]2CCCN2C(=O)[C@@H](Cc2ccc(O)cc2)NC(=O)[C@H](C)NC(=O)[C@@H](CCCCN)NC1=O [V3/A3] | 75 | 18 | 12.5 | 9 | 35 | 62 | >200 | >200 | 50 | >200 | >200 | 3.1 | 50 | >800 | 163 |
